Measurements from article PMC6792352, “Limited Chemical Structural Diversity Found to Modulate Thyroid Hormone Receptor in the Tox21 Chemical Library” (Environmental Health Perspectives, 2019).
Structures can show the parent of a compound that is named as a salt.

Assay: in vitro
Details: rat, gh3-tre-luc cells, AC50 (uM) modified / 1000

SMILES | CC50 at 24 h
N=C(N)S(=O)O [Amino(imino)methanesulfinic acid] | > 90 µM
CC(=O)N[C@@H]1[C@@H](O)[C@H](O)[C@@H](CO)O[C@H]1O [N-Acetylglucosamine] | > 50 µM
CCCCCCCCCCCCOCCCN [Laurixamine] | > 50 µM
OC12N=C(c3ccccc3)SC1Cc1cc(Cl)ccc12 (stereo not drawn) [HMR1426] | 56.9 µM
COc1cc2c(N3CCN(C(=O)Nc4ccc(OC(C)C)cc4)CC3)ncnc2cc1OCCCN1CCCCC1 [Tandutinib] | 11.4 µM
CCCCCCCCOc1ccc(C(=O)c2ccccc2)c(O)c1 [Octabenzone] | > 90 µM
CCOS(=O)(=O)OCC [Diethyl sulfate] | > 90 µM
C=C[C@]1(C)C[C@@H](OC(=O)CSCCN(CC)CC)[C@]2(C)[C@H](C)CC[C@]3(CCC(=O)[C@H]32)[C@@H](C)[C@@H]1O [Tiamulin] | 14.1 µM
CC(C)OC(=O)c1cc2c(OCC(O)CNC(C)(C)C)cccc2[nH]1 (stereo not drawn) [SDZ 21009] | 36.9 µM
O=C(O)c1ccc2cc(C(=O)O)ccc2c1 [2,6-Naphthalenedicarboxylic acid] | > 90 µM
O=C(CCl)Nc1ccccc1 [2-Chloro-N-phenylacetamide] | 23.7 µM
CC(C)c1ccc(NC(=O)N(C)C)cc1 [Isoproturon] | > 90 µM
O=[N+]([O-])c1ccc(Oc2ccc([N+](=O)[O-])cc2)cc1 [1,1'-Oxybis(4-nitrobenzene)] | > 90 µM
CC1CN1 (stereo not drawn) [Propyleneimine] | > 90 µM
CCCC(=O)O[C@]1(C(=O)CCl)[C@@H](C)C[C@H]2[C@@H]3CCC4=CC(=O)C=C[C@]4(C)[C@@]3(F)C(=O)C[C@@]21C [Clobetasone butyrate] | > 50 µM
O=C1CCCCCCCCCCCN1 [Azacyclotridecan-2-one] | > 90 µM
CC(=O)c1ccc2c(c1)Cc1ccccc1-2 [2-Acetylfluorene] | > 90 µM
CCC(C)(C)CC [Pentane,3,3-dimethyl-] | > 100 µM
CC(S)C(C)S (stereo not drawn) [2,3-Butanedithiol] | > 100 µM
CN1CCN(CCCN2c3ccccc3Sc3ccc(S(=O)(=O)N(C)C)cc32)CC1 [Thioproperazine dimethanesulfonate] | 14.2 µM
c1ccc2c(c1)ccc1ncccc12 [Benzo(f)quinoline] | > 90 µM
CCc1cccc(C)c1N(C(=O)CCl)C(C)COC (stereo not drawn) [Metolachlor] | > 90 µM
CN[C@H]1CC[C@@H](c2ccc(Cl)c(Cl)c2)c2ccccc21 [Sertraline hydrochloride] | 7.85 µM
CO[Si](CCCS)(OC)OC [3-Mercaptopropyltrimethoxysilane] | > 90 µM
CC/C=C\CC/C=C/C(OCC)OCC [(2E,6Z)-1,1-diethoxynona-2,6-diene] | > 90 µM

SMILES | CC50 at 24 h
CN1C[C@@H]2C[C@H]1CN2c1cc2c(cc1F)c(=O)c(C(=O)O)cn2C1CC1 [Danofloxacin] | > 50 µM
O=C1c2ccccc2C(=O)C1c1ccc2ccccc2n1 [D & C Yellow 11] | > 50 µM
CC(C)=CCC1=C(O)C(=O)c2ccccc2C1=O [Lapachol] | 10.7 µM
CCCCOC(=O)c1ccccc1 [Butyl benzoate] | > 90 µM
CCCCCC=CCC1CC(=O)OC1=O (stereo not drawn) [2-Octen-1-ylsuccinic anhydride] | > 90 µM
CCOC(=O)CC(O)(CC(=O)OCC)C(=O)OCC [Triethyl citrate] | > 90 µM
CC(C)(C)c1cccc(O)c1 [3-tert-Butylphenol] | > 90 µM
CC1=NN(c2cc(S(=O)(=O)O)ccc2Cl)C(=O)C1N=Nc1ccccc1 (stereo not drawn) [C.I. Acid Yellow 34, monosodium salt] | 92.1 µM
CCOC(=O)OC(C)OC(=O)[C@@H]1N2C(=O)[C@@H](NC(=O)[C@H](N)c3ccccc3)[C@H]2SC1(C)C (stereo partly drawn) [Bacampicillin hydrochloride] | > 20 µM
c1ccc2nc(N3CCNCC3)ccc2c1 [Quipazine maleate] | 36.9 µM
CCN(CC)c1ccc(C(=C2C=CC(=[N+](CC)CC)C=C2)c2ccccc2)cc1 [Brilliant Green] | 0.384 µM
CCN(C)N=O [N-Nitroso-N-methylethylamine] | > 90 µM
O=S1(=O)CCCC1 [Sulfolane] | > 90 µM
C[C@]12CCC(=O)C=C1CC[C@@H]1[C@@H]2CC[C@@]2(C)[C@H]1CC[C@]2(O)C(=O)CO [Cortodoxone] | > 50 µM
NC(=O)Nc1ccc(Cl)c(Cl)c1 [3,4-Dichlorophenylurea] | > 90 µM
Nc1ccc(C(=O)NCC(=O)O)cc1 [Aminohippuric acid] | > 20 µM
C=CCOc1cc(Cl)ccc1C(=O)NCCN(CC)CC [Alloclamide] | 9.52 µM
O=C(O)[C@H](O)[C@@H](O)[C@H](O[C@@H]1O[C@H](CO)[C@H](O)[C@H](O)[C@H]1O)[C@H](O)CO [Lactobionic acid] | > 20 µM
CC(=O)Nc1ncc([N+](=O)[O-])s1 [Nithiamide] | > 50 µM
CCC1(c2ccccc2)C(=O)NCNC1=O [Primidone] | > 90 µM
C=C1c2cccc(O)c2C(O)=C2C(=O)[C@]3(O)C(O)=C(C(N)=O)C(=O)[C@@H](N(C)C)[C@@H]3[C@@H](O)[C@H]12 [Methacycline hydrochloride] | > 20 µM
CN1CCC(OC(c2ccccc2)c2ccccc2)CC1 [Diphenylpyraline hydrochloride] | > 20 µM
CCCCN(CCCC)CCCOC(=O)c1ccc(N)cc1 [Butacaine] | > 20 µM
Cc1ccc(O)cc1 [p-Cresol] | > 100 µM
O=C(O)CCc1ccccc1 [Hydrocinnamic acid] | > 90 µM

SMILES | CC50 at 24 h
CC1(C)CC(O)CC(C)(C)N1 [2,2,6,6-Tetramethyl-4-piperidinol] | > 90 µM
Cc1ccc2c(c1N)C(=O)c1ccccc1C2=O [1-Amino-2-methylanthraquinone] | 78.4 µM
C1C[C@@H]2[C@H]3CC[C@H](C3)[C@@H]2C1 [Octahydro-exo-4,7-methano-1H-indene] | > 90 µM
CC(C)NNC(=O)c1ccncc1 [Iproniazid sulfate] | > 50 µM
c1coc(Cn2cccc2)c1 [1-Furfurylpyrrole] | > 90 µM
CC[N+](C)(C)c1cccc(O)c1 [Edrophonium chloride] | > 20 µM
CC1CC(O)CC(C)(C)C1 (stereo not drawn) [3,3,5-Trimethylcyclohexanol] | > 90 µM
CCCCCCC[N+](CC)(CC)CCCCc1ccc(Cl)cc1 [Clofilium tosylate] | > 20 µM
C=C(C)C(=O)OC [Methyl methacrylate] | > 90 µM
O=Cc1ccccc1O [Salicylaldehyde] | > 90 µM
COC(=O)COc1ccc(Cl)cc1Cl [2,4-D-methyl] | > 90 µM
COc1ccc(NC(=O)CC(C)=O)cc1 [N-(4-Methoxyphenyl)-3-oxobutanamide] | > 90 µM
C=C(C)C(=O)OCCOP(=O)(O)OCCOC(=O)C(=C)C [Bis(methacryloyloxyethyl) hydrogen phosphate] | > 90 µM
Cc1ccc(N)cc1[N+](=O)[O-] [4-Methyl-3-nitroaniline] | > 90 µM
CCN(Cc1ccc(Cl)nc1)/C(=C/[N+](=O)[O-])NC [(E)-Nitenpyram] | > 50 µM
O=S(=O)(Cl)c1ccccc1 [Benzenesulfonyl chloride] | > 90 µM
O=C(O)Cc1ccccc1Nc1c(Cl)cccc1Cl [Diclofenac sodium] | > 90 µM
CCCCCCCC/C=C\CCCCCCCCCCCC(=O)O [(13Z)-Docos-13-enoic acid] | > 90 µM
CCOC(=O)C(C)OC(=O)c1cc(Oc2ccc(C(F)(F)F)cc2Cl)ccc1[N+](=O)[O-] (stereo not drawn) [Lactofen] | > 90 µM
CCCN [Propylammonium nitrate] | > 90 µM
CC1=CC[C@@]23C[C@@H]1C(C)(C)[C@@H]2CC[C@H]3C [(-)-alpha-Cedrene] | > 90 µM
Nc1ccc2cc(S(=O)(=O)O)ccc2c1 [6-Aminonaphthalene-2-sulfonic acid] | > 90 µM
CCCC(C)C(=O)OCC (stereo not drawn) [Ethyl 2-methylpentanoate] | > 90 µM
Nc1ccc([N+](=O)[O-])cc1 [4-Nitroaniline] | > 90 µM
NCCN [Ethylenediamine] | > 90 µM

Same assay, conditions: rat, gh3-tre-luc cells, AC50 (uM) modified / 1000, Tox21_110001=Tox21_112772; viability, 1 nM T3 present, 24 h

SMILES | CC50 at 24 h
C[C@]12Cc3nonc3C[C@@H]1CC[C@@H]1[C@@H]2CC[C@@]2(C)[C@H]1CC[C@]2(C)O [Furazabol] | 25.2 µM

Same assay, conditions: rat, gh3-tre-luc cells, AC50 (uM) modified / 1000, Tox21_110001=Tox21_112877; viability, 1 nM T3 present, 24 h

SMILES | CC50 at 24 h
CC(C)=CCN1CC[C@@]2(C)c3cc(O)ccc3C[C@@H]1[C@@H]2C [(-)-Pentazocine succinate] | 34.4 µM

Same assay, conditions: rat, gh3-tre-luc cells, AC50 (uM) modified / 1000, Tox21_110001=Tox21_200571; viability, 1 nM T3 present, 24 h

SMILES | CC50 at 24 h
BrC(Br)C(Br)(Br)Br [Pentabromoethane] | 24.2 µM

Same assay, conditions: rat, gh3-tre-luc cells, AC50 (uM) modified / 1000, Tox21_110001=Tox21_201178; viability, 1 nM T3 present, 24 h

SMILES | CC50 at 24 h
CC(Cl)(Cl)[N+](=O)[O-] [1,1-Dichloro-1-nitroethane] | > 90 µM

Same assay, conditions: rat, gh3-tre-luc cells, AC50 (uM) modified / 1000, Tox21_110001=Tox21_201442; viability, 1 nM T3 present, 24 h

SMILES | CC50 at 24 h
O=[N+]([O-])c1ccccc1O [2-Nitrophenol] | > 90 µM

Same assay, conditions: rat, gh3-tre-luc cells, AC50 (uM) modified / 1000, Tox21_110001=Tox21_202253; viability, 1 nM T3 present, 24 h

SMILES | CC50 at 24 h
c1ccc(N=NNc2ccccc2)cc1 [Diazoaminobenzene] | 69 µM

Same assay, conditions: rat, gh3-tre-luc cells, AC50 (uM) modified / 1000, Tox21_110001=Tox21_300782; viability, 1 nM T3 present, 24 h

SMILES | CC50 at 24 h
O=S1(=O)OCC2C(CO1)C1(Cl)C(Cl)=C(Cl)C2(Cl)C1(Cl)Cl (stereo not drawn) [Endosulfan sulfate] | 56.1 µM

Same assay, conditions: rat, gh3-tre-luc cells, AC50 (uM) modified / 1000, Tox21_110001=Tox21_301565; viability, 1 nM T3 present, 24 h

SMILES | CC50 at 24 h
O=C1c2ccccc2C(=O)C1C(=O)C(c1ccccc1)c1ccc(Cl)cc1 (stereo not drawn) [Chlorophacinone] | 42.3 µM

Same assay, conditions: rat, gh3-tre-luc cells, AC50 (uM) modified / 1000, Tox21_110001=Tox21_303249; viability, 1 nM T3 present, 24 h

SMILES | CC50 at 24 h
c1ccc(N=NNc2ccccc2)cc1 [Diazoaminobenzene] | 47.9 µM
